Test results taken from PMC11678162 (Pharmaceutics, 2024).
Bridge positions count the residues as written; N and C are the ends. Square brackets hold non-standard residues; d marks the D form. Peptide text beside a SMILES is read from it. pGlu = O=C1CC[C@@H](C(=O)O)N1

How the values were obtained:
[1] = system: human peripheral blood mononuclear cells (PBMC); assay: Cytotoxicity, resazurin assay; format: cell-based; conditions: RPMI-1640 + 10% FBS, 24 h of incubation
Description: The cytotoxic effect of the peptides was tested on human peripheral blood mononuclear cells (PBMC) using the resazurin assay. To perform the analysis, double serial dilutions of the studied peptides were performed in RPMI-1640 nutrient medium supplemented with 10% FBS in sterile 96-well flat-bottom polystyrene microplates (Nest, Wuxi, Jiangsu, China). Next, an equal volume of RPMI medium containing a suspension of freshly isolated PBMC was added to the peptide solution to a total volume of 100 μL and a cell concentration of 5 × 10^4 per well. The plates were incubated for 20 h in a CO2 incubator (5% CO2, 37 °C) and then 5 µL of resazurin solution was added at a concentration of 0.1 mg/mL, after which the incubation was continued for 4 h. The fluorescence of the formed resorufin was measured using an AF2200 microplate reader (Eppendorf, Germany) using the following channel: λExc = 535 nm; λem = 595 nm. The fluorescence signal in the wells containing cells cultured without peptides was taken as a 100% cell viability. Wells containing no cells were used as a negative control. Experimental data were obtained in two independent experiments performed in triplicate.

[2] = system: freshly isolated human erythrocytes (hRBCs); assay: Hemolysis (hemoglobin release assay); format: cell-based; conditions: 4% hRBCs, 1.5 h of incubation
Description: Hemolytic activity was determined using freshly isolated human erythrocytes (hRBCs) according to a previously published method. Isotonic phosphate buffer (PBS) and 0.1% Triton X-100 were used as controls for the absence of lysis and complete disintegration of hRBCs, respectively.

Stability in serum = format: in vitro ADME, human; conditions: 37 °C
Description: The serum stability of DsGom was determined in 25% fresh human serum in PBS (pH 7.4), as described previously. Briefly, 20 μL of aqueous peptide stock solution (5 mg/mL) was added to 480 μL of serum solution and incubated for 0, 2, 8, and 24 h at 37 °C. After incubation, serum proteins were selectively precipitated from the mixture by adding 10% TFA in the presence of 3.75 M of urea. Subsequently, the samples were stored at 0 °C for 30 min and centrifuged at 30,000× g for 10 min. Equal volumes of supernatants after serum protein precipitation were analyzed by analytical HPLC (Symmetry 300 C18 column, Waters, Milford, MA, USA) and MALDI-TOF MS. The amount of the intact peptide was estimated from the corresponding peak area on the HPLC chromatogram. For each peptide, two independent experiments were performed in triplicate. The comparison of the results and statistical processing were performed using GraphPad Prism 6.0 (GraphPad Software, Boston, MA, USA).

serum = conditions: cited from earlier work
[3] = 25% fresh human serum in PBS (pH 7.4); conditions: 37 °C, up to 24 h

CC(C)[C@@H]1NC(=O)[C@@H]2CSSC[C@H](NC(=O)[C@H](C(C)C)NC(=O)[C@H](CCCNC(=N)N)NC(=O)[C@H](CCCNC(=N)N)NC(=O)[C@@H](NC(=O)[C@@H](N)CCCNC(=N)N)CSSC[C@@H](C(=O)O)NC(=O)[C@H](Cc3ccc(O)cc3)NC(=O)[C@H](CCC(N)=O)NC1=O)C(=O)N[C@@H](Cc1ccc(O)cc1)C(=O)N[C@@H](CCCCN)C(=O)N[C@@H](CCCCN)C(=O)N[C@@H](CCCNC(=N)N)C(=O)N2 [DS7] (H-RCRRVCYKKRCVQYC-OH; disulfide 2-15, 6-11)
cytotoxic effects on PBMC (in words) [1]: significantly enhanced cytotoxic effects on PBMC

CC(C)[C@@H]1NC(=O)[C@@H]2CSSC[C@H](NC(=O)[C@H](C(C)C)NC(=O)[C@H](CCCNC(=N)N)NC(=O)[C@H](Cc3c[nH]cn3)NC(=O)[C@@H](NC(=O)[C@@H](N)CCCNC(=N)N)CSSC[C@@H](C(=O)O)NC(=O)[C@H](Cc3ccc(O)cc3)NC(=O)[C@H](CCC(N)=O)NC1=O)C(=O)N[C@@H](Cc1ccc(O)cc1)C(=O)N[C@@H](Cc1c[nH]cn1)C(=O)N[C@@H](CCCCN)C(=O)N[C@@H](Cc1c[nH]cn1)C(=O)N2 [DsGom] (H-RCHRVCYHKHCVQYC-OH; disulfide 2-15, 6-11)
grade of hemolysis ([2]; 128 µM peptide, 0.1% Triton X-100 = complete lysis, two independent experiments): ~ 1% | remaining at 24 h, 0.2 mg/mL (Stability in serum; 25% fresh human serum in PBS (pH 7.4), 20 μL of 5 mg/mL stock in 480 μL, TFA/urea precipitation, HPLC peak area (0 h = 100%), two independent experiments in triplicate, read-out: initial amount of peptide remaining intact): ≥ 90% | percentage of the form without the N-terminal arginine residue in the main peak (Stability in serum; 25% human serum in PBS, 24 h, MALDI MS of the HPLC fraction): < 10%

CC(C)C[C@@H]1NC(=O)[C@H](CCCNC(=N)N)NC(=O)[C@H](CCCNC(=N)N)NC(=O)[C@@H](NC(=O)[C@@H]2CCC(=O)N2)CSSC[C@@H](C(=O)N[C@@H](CO)C(=O)NCC(=O)N[C@@H](CCCNC(=N)N)C(=O)O)NC(=O)[C@H](Cc2ccc(O)cc2)NC(=O)[C@H]([C@@H](C)O)NC(=O)[C@H](CC(C)C)NC(=O)[C@@H]2CSSC[C@H](NC1=O)C(=O)N[C@@H](Cc1ccccc1)C(=O)N[C@@H](CCCNC(=N)N)C(=O)N[C@@H](CC(N)=O)C(=O)N[C@@H](CCCNC(=N)N)C(=O)N2 [Gom-2] ([pGlu]CRRLCFRNRCLTYCSGR-OH; disulfide 2-15, 6-11)
hemolytic activity (in words) ([2]; compared to gomesin): significantly higher grade of hemolytic activity

ZCRRLCYKQRCVTYCRGR
not cleaved (serum): quite stable in the presence of serum enzymes

CC(C)[C@@H]1NC(=O)[C@@H]2CSSC[C@H](NC(=O)[C@H](C(C)C)NC(=O)[C@H](CCCNC(=N)N)NC(=O)[C@H](CCCNC(=N)N)NC(=O)[C@@H](NC(=O)[C@@H](N)CCCNC(=N)N)CSSC[C@@H](C(=O)O)NC(=O)[C@H](Cc3ccc(O)cc3)NC(=O)[C@H](CCC(N)=O)NC1=O)C(=O)N[C@@H](Cc1ccc(O)cc1)C(=O)N[C@@H](CCCCN)C(=O)N[C@@H](CCCCN)C(=O)N[C@@H](Cc1c[nH]cn1)C(=O)N2 [DS5] (H-RCRRVCYKKHCVQYC-OH; disulfide 2-15, 6-11)
cytotoxic effects on PBMC (in words) [1]: significantly enhanced cytotoxic effects on PBMC

RCHRVCYHKHCVQYC
cleaved bond [3]: Arg1-C2, minor, 8 h
